For orientation: EC50 means the concentration giving half of the maximal effect. What is called IC50 is the midpoint of a concentration-inhibition curve.

Read-outs that look alike come from different tables or passages of the source.

From article PMC6891695, “Evaluation of Antifouling Potential and Ecotoxicity of Secondary Metabolites Derived from Red Algae of the Genus Laurencia” (Marine Drugs, 2019) come the findings set out here.

For one series, the system named is cyprids of A. amphitrite. The series can be described thus: whole plant or invertebrate. The format is in vivo. The following applies: for EC50 / IC50: Amphibalanus amphitrite; for EC50: read-out: EC50 No Metamorphosis; for IC50: read-out: IC50 Settlement; for EC50 values for settlement inhibition of barnacle cyprids (in words): consistently, 24-72 h. The procedure:
(§1) Adult A. amphitrite (Cirripedia, Balanidae) were collected from boat docks at Port Mikrolimano and Floisvos, Athens, Greece. Animals were cleaned of epibionts with a small hard brush and meticulously identified as individuals of the species. Adult barnacles were kept in separate aerated glass tanks (20 L) containing 200-μm filtered natural seawater at 27 °C and a 12:12 L:D photoperiod. Tanks were fed with 24-h hatched Artemia sp. (Branchiopoda) nauplii and Tetraselmis suecica (Chlorodendrophyceae) and Skeletonema costatum (Bacillariophyceae) algae each day and seawater was changed on alternate days. Upon stress to induce oviposition (exposure to air for 24 h or immersion in fresh water for 5 h), adults were returned to seawater for larval release. Hatched nauplii were attracted to a point light source, collected and placed into a beaker containing 2 or 3 L of 0.7 μm GF/F (GE Healthcare, Little Chalfont, UK )-filtered natural seawater at a density of approximately 1–2 nauplii/mL with gentle aeration. Nauplii were maintained at 27 °C at a 12:12 L:D photoperiod on a diet of C. gracilis (Bacillariophyceae) provided at a density of 2 × 10^5 cells/mL. Cultured in these conditions, nauplii metamorphosed to cyprids in 5 days. Aliquots of these cyprids were collected with a wide-mouthed Pasteur pipette and aged at 4 °C for 1 day prior to use in settlement assays. Only batches of cyprids that were active and had numerous oil cells, representing energy reserves, were used in settlement assays.
(§2) Assays were conducted by adding 10 cyprids into individual wells of a 24-well polystyrene sterile microplate (Orange Scientific, Braine l’Alleud, Belgium) with 2 mL of artificial sea water (ASW) (25‰) and various concentrations of the chemical compounds as listed in Table 1. These experiments were repeated at least three times with four replicates for each concentration of any given compound (n = 120 cyprids/compound). Stock solutions for all compounds were prepared in methanol (Scharlab, Barcelona, Spain) and serial dilutions were prepared in 0.7 μm (GF/F, GE Healthcare, Little Chalfont, UK), filtered sea water to have a final concentration of 2.5% methanol in each assay solution. Plates were covered and sealed with Parafilm® to avoid evaporation and incubated at 25 °C away from any light source and examined after 24, 48 and 72 h. Each animal was inspected under a stereomicroscope and its condition was recorded. […] Both permanently attached and metamorphosed individuals were counted as settled or juveniles. The remainder were counted as ‘no metamorphosis’, i.e. animals that responded to light touch and were still cyprids at the end of the experiments with no overt signs of metamorphosis.
(§3) For EC50 or IC50 (the concentration that results in 50% stimulation or inhibition relative to the control) calculations in GraphPad Prism v.6, all data were fitted to the curve according to the following models for normalized response: Y = 100/(1 + 10^((X − LogIC50))) or Y = 100/(1 + 10^((LogEC50 − X))) depending on the trend of the curve.

A further series is described as follows: in vivo. Type of series: in vivo. The following applies: Amphibalanus amphitrite, in vivo, read-out: LC50 Mortality; for LC50 at 24 h: 24 h exposure; for LC50 at 48 h: 48 h exposure; for LC50 at 72 h: 72 h exposure. The procedure:
as §1, §2, §3

Another series concerns A. salina nauplii. The series can be described thus: Artemia salina toxicity assay. Type of series: in vivo. The following applies: in vivo. As for the experimental part: (§4) The short-term toxicity assay with A. salina nauplii was used to determine the toxicity of secondary metabolites. Hatching of A. salina nauplii was carried out in ASW (35‰) using 0.5 g of cysts incubated in 500 mL seawater at a temperature of 25 ± 1 °C and lateral illumination (1000 Lux). All cysts were kept in continuous suspension with aeration and 24 h later hatched larvae (instar I) were harvested. Toxicity assays were carried out in three independent experiments in 24-well plates with four replicates of each tested concentration. Ten nauplii per well were transferred with a Pasteur pipette into the 24-well plates and each well was filled with 2 mL of ASW and 50 μL of various concentrations of the tested compounds in methanol. Control treatments received 50 μL of methanol. Plates were incubated in the dark at 25 ± 1 °C for 48 h. Mortality was assessed by recording the number of individuals with no movement of their appendages within 10 seconds and is expressed as the percentage of the total number of assessed individuals for each concentration.
as §3

Series [1] in a line: Artemia salina toxicity assay. Type of series: in vivo. The following applies: Artemia salina, in vivo, read-out: EC50 Artemia salina toxicity (mortality). As for the experimental part:
as §4, §3

The next series relates to Chaetoceros gracilis. The series can be described thus: Chaetoceros gracilis toxicity (phytoplankton growth) assay. The format is cell-based. The following applies: 96 h; for EC50: Chaetoceros neogracilis. The procedure:
For phytoplankton growth toxicity assays, the criterion for assay validity was that the cell count of the negative control after 96 h should be ≥2 × 10^5 cells/mL [40].
The centric marine diatom C. gracilis Schütt (strain CCMP1315) was grown photoautotrophically in autoclaved artificial seawater (sea salts; Sigma-Aldrich, St. Louis, MO, USA) (30‰) supplemented with F/2 (half-strength medium f as subsequently modified) in 100 mL medium at 20 °C and with ambient air bubbled in the media. By monitoring cell density, an adjusted culture of >1 × 10^6 cells/mL was used for the toxicity assays. At 96 h, a 0.9 mL aliquot of each treatment was sampled, mixed with 0.1 mL Lugol and cell density was counted. Experiments were assumed valid if cell count in the control after 96 h was […].
as §3

Series [2] has as its system five strains of marine bacteria. Briefly: Marine bacteria growth assay, positive control (strain not specified). Type of series: cell-based. The following applies: 40 μL of 0.5 M per disc. The procedure: The ability of selected metabolites to inhibit the growth of bacteria was assessed using five strains of marine bacteria involved in marine surface biofilm formation, namely, B. subtilis, B. mojavensis, B. thuringiensis, P. putita and P. pseudoalcaligenes. Bacterial strains were maintained on Zobel marine agar plates. Sterile filter paper discs (4 mm) (GF/F; GE Healthcare, Little Chalfont, UK) were loaded with 40 μL samples of serial dilutions of each tested metabolite, allowed to dry at room temperature and then placed on agar plates (Zobel marine agar, pH = 7.3), which were seeded with a single strain of bacteria. Plates were incubated for 24 h at 25 °C. Marine bacteria growth inhibition was determined by measuring the zone of inhibition in mm around the filter paper disc. As a positive and negative control, standard discs were loaded with 40 μL of 0.5 M penicillin G (2 to 10 mm diameter) or solvent (40 μL methanol), respectively.

For `Cc1ccc(C2(C)CCC(=CBr)C2C)c(O)c1` (centres unmarked) [Compound 4, iso-laurenisol], in the series with cyprids of A. amphitrite (24 h), the half-maximal effective concentration (EC50) came to 10400 nM and the IC50 amounted to 120 nM. Further, in the series on cyprids of A. amphitrite (48 h), the concentration giving a half-maximal response (EC50) worked out at 12400 nM and the IC50 stood at 180 nM. In the series on cyprids of A. amphitrite (72 h), the EC50 worked out at 5850 nM and the IC50 was 340 nM. The “EC50 values for settlement inhibition of barnacle cyprids (in words)” value (shortened to “EC50 values for settlement inhibition”) in the series with cyprids of A. amphitrite is recorded as “sub-micromolar”. Moreover, in the series “in vivo”, the LC50 at 24 h worked out at 3550 nM, the LC50 at 48 h was 2980 nM and the LC50 at 72 h came out at 2800 nM. For the same compound, in the series with A. salina nauplii, the “A. salina exclusion criterion (>10-fold change in EC50 between 24 h and 48 h)” value was “did not pass this criterion”. In series [1], the LC50 at 24 h was 21100 nM and the LC50 at 48 h turned out to be 739 nM.

As for `CC1C(Br)C(=O)C(C)C23CCC2(C)C(Br)CC13C` (centres unmarked) [Compound 11, perforatone], the figures for the half-maximal effective concentration (EC50) with cyprids of A. amphitrite (24 h), in the series with cyprids of A. amphitrite (48 h) and with Chaetoceros gracilis were 3 nM, 2 nM and 4520 nM, respectively. Further, the IC50 in the series with cyprids of A. amphitrite (24 h) came out at 3 nM; with cyprids of A. amphitrite (48 h), 2 nM; with cyprids of A. amphitrite (72 h) it was 2 nM. Further, the “EC50 values for settlement inhibition” value in the series with cyprids of A. amphitrite was “sub-micromolar”. The results for the LC50 at 24 h (in “in vivo”; in series [1]) were 56100 nM and 10000 nM, respectively. In addition, the LC50 at 48 h in “in vivo” stood at 38400 nM; in series [1], 1570 nM. Also, in the series with Chaetoceros gracilis, the “C. gracilis exclusion criterion (EC50 compared with bromosphaerol)” value is recorded as “did not pass this criterion”.

Regarding `C=C1C[C@H](O)[C@H](Br)C(C)(C)[C@@]12CCC(C)=C(Cl)C2` [Compound 12, elatol], in the series on cyprids of A. amphitrite (24 h), the EC50 turned out to be 396 nM and the 50% inhibitory concentration (IC50) was determined as 89 nM. Besides, in the series on cyprids of A. amphitrite (48 h), the EC50 came to 250 nM and the IC50 is 73 nM. Moreover, in the series with cyprids of A. amphitrite (72 h), the EC50 was 66 nM and the IC50 came out at 42 nM. Further, in the series with cyprids of A. amphitrite, the “EC50 values for settlement inhibition” value is reported as “sub-micromolar”. Further, the “toxic effect on cyprids” value in the series with cyprids of A. amphitrite (in vivo) is recorded as “obvious toxic effect on cyprids”. In “in vivo”, the LC50 at 24 h came to 327 nM, the LC50 at 48 h came to 194 nM and the LC50 at 72 h turned out to be 61 nM. Moreover, the “A. salina exclusion criterion (>10-fold change in EC50 between 24 h and 48 h)” value with A. salina nauplii is recorded as “did not pass this criterion”. Also, in series [1], the LC50 at 24 h came to 6590 nM and the LC50 at 48 h was determined as 373 nM.

For the compound `CC1(C(Br)CO)CC=C2C(C1)C(O)CC1C2(C)CCC(Br)C1(C)C` (centres unmarked) [Compound 14, 3,15-dibromo-7,16-dihydroxy-isopimar-9(11)-ene], in the series on cyprids of A. amphitrite (24 h), the EC50 is 6420 nM and the IC50 amounted to 11 nM. In the series with cyprids of A. amphitrite (48 h), the EC50 came out at 5150 nM and the IC50 is 65 nM. Further, in the series with cyprids of A. amphitrite (72 h), the EC50 came to 7720 nM and the IC50 came to 28 nM. In the series on cyprids of A. amphitrite, the “EC50 values for settlement inhibition” value was “sub-micromolar”. Besides, in “in vivo”, the LC50 at 24 h was 1960 nM, the LC50 at 48 h amounted to 3610 nM and the LC50 at 72 h came out at 3540 nM. Further, in the series with Chaetoceros gracilis, the “C. gracilis exclusion criterion (EC50 compared with bromosphaerol)” value is listed as “did not pass this criterion” and the concentration giving a half-maximal response (EC50) is 1610 nM. Further, in series [1], the LC50 at 24 h amounted to 34200 nM and the LC50 at 48 h is 15100 nM.

Take `C#CC=CCC1OC(C(Br)CC)CC(OC(C)=O)C(Cl)CC1Cl` (centres unmarked) [Compound 22, laurencienyne]: in the series with cyprids of A. amphitrite (24 h), the EC50 was 8 nM and the half-inhibitory concentration (IC50) was determined as 25 nM. Also, in the series with cyprids of A. amphitrite (48 h), the concentration for a half-maximal effect (EC50) was determined as 10 nM and the concentration for half-maximal inhibition (IC50) stood at 43 nM. For the same compound, in the series on cyprids of A. amphitrite (72 h), the EC50 amounted to 58700 nM and the concentration for half-maximal inhibition (IC50) stood at 55 nM. In addition, the “EC50 values for settlement inhibition” value with cyprids of A. amphitrite is “sub-micromolar”. In addition, in “in vivo”, the LC50 at 24 h is 6860 nM, the LC50 at 48 h came to 10100 nM and the LC50 at 72 h was 71300 nM. In addition, in the series on Chaetoceros gracilis, the “C. gracilis exclusion criterion (EC50 compared with bromosphaerol)” value was “did not pass this criterion” and the response was half-maximal at 2150 nM (EC50). For the same compound, in series [1], the LC50 at 24 h was found to be 3070 nM and the LC50 at 48 h amounted to 9630 nM.

As to `CC1(C)S[C@@H]2[C@H](NC(=O)Cc3ccccc3)C(=O)N2[C@H]1C(=O)O` [penicillin G], the “zone of inhibition (diameter)” value in series [2] lay in the range of 2 to 10 mm.
